# Measured values reported in ChEMBL document CHEMBL5500375, “Design, synthesis, and evaluation of N1,N3-dialkyldioxonaphthoimidazoliums as antibacterial agents against methicillin-resistant Staphylococcus aureus” (Eur J Med Chem, 2024).
# Activity calls are given as the source filed them. No cut-off for these calls is given here.
# Legend:
# Staphylococcus aureus [1] = assay: Antibacterial agents against methicillin-resistant Staphylococcus aureus SA3 assessed as absence of growth measured after 18 hrs by micro-dilution method; format: functional
# Escherichia coli = assay: Antibacterial agents against gram negative Escherichia coli MG1655 assessed as reduction in colony forming unit at 0.05 to 0.2 ug/ml measured upto 10 hrs by LB agar medium method; format: functional, organism-based; details: dose 0.05-0.2 µg/ml
# Pseudomonas aeruginosa = assay: Antibacterial agents against gram negative Pseudomonas aeruginosa PA14 assessed as reduction in colony forming unit at 0.05 to 0.2 ug/ml measured upto 10 hrs by LB agar medium method; format: functional, organism-based; details: dose 0.05-0.2 µg/ml
# Staphylococcus aureus [2] = assay: Antibacterial agents against methicillin-sensitive Staphylococcus aureus Newman assessed as absence of growth measured after 18 hrs by micro-dilution method; format: functional
# [3] = Metabolic stability in human liver microsomes assessed as intrinsic clearance at 2 uM preincubated for 5 mins followed by NADPH addition and measured for 35 mins by LC/MS analysis; format: ADME, Microsome; details: read-out: CLH
# Bacillus subtilis = assay: Antibacterial agents against Bacillus subtilis PS380 assessed as absence of growth measured after 18 hrs by micro-dilution method; format: functional
# [4] = Metabolic stability in human liver microsomes assessed as half life at 2 uM preincubated for 5 mins followed by NADPH addition and measured for 35 mins by LC/MS analysis; format: ADME, Microsome; details: preincubation 5 min
# Staphylococcus aureus [5] = assay: Antibacterial agents against methicillin-sensitive Staphylococcus aureus SA1 assessed as absence of growth measured after 18 hrs by micro-dilution method; format: functional
# [6] = In vivo toxicity in Drosophila melanogaster strain Oregon R assessed as survival rate at 0.1 to 1 mg/ml measured upto 72 hrs relative to control; format: organism-based; details: dose 0.1-1 mg/ml
# Staphylococcus aureus [7] = assay: Antibacterial agents against methicillin-resistant Staphylococcus aureus USA300 assessed as absence of growth measured after 18 hrs by micro-dilution method; format: functional
# Staphylococcus aureus [8] = assay: Induction of ROS generation in methicillin-resistant Staphylococcus aureus USA300 using hydroxyphenyl fluorescein at 0.09 ug/ml under anaerobic condition; format: functional, organism-based; details: dose 0.09 µg/ml, TDE = time-dependent effect
# Staphylococcus aureus [9] = assay: Reduction in virulent activity of methicillin-resistant Staphylococcus aureus SA3 infected in dorsal thorax of Drosophila melanogaster strain Oregon R at 0.2 mg/ml measured upto 72 hrs; format: functional, organism-based
# Staphylococcus aureus [10] = assay: Antibacterial agents against c5-resistant mutant of methicillin-resistant Staphylococcus aureus SA3 m1 assessed as absence of growth measured after 18 hrs by micro-dilution method; format: functional
# Staphylococcus aureus [11] = assay: Antibacterial agents against c5-resistant mutant of methicillin-resistant Staphylococcus aureus SA3 m2 assessed as absence of growth measured after 18 hrs by micro-dilution method; format: functional
# Staphylococcus aureus [12] = assay: Antibacterial agents against c5-resistant mutant of methicillin-resistant Staphylococcus aureus SA3 m3 assessed as absence of growth measured after 18 hrs by micro-dilution method; format: functional
# Staphylococcus aureus [13] = assay: In vivo antibacterial activity against methicillin-resistant Staphylococcus aureus SA3 infected in dorsal thorax of Drosophila melanogaster strain Oregon R assessed as survival time of Drosophila at 0.2 mg/ml measured upto 72 hrs; format: functional
# Staphylococcus aureus [14] = assay: In vivo antibacterial activity against methicillin-resistant Staphylococcus aureus SA3 infected in dorsal thorax of Drosophila melanogaster strain Oregon R assessed as median survival time of Drosophila at 0.04 to 0.2 mg/ml measured upto 72 hrs; format: functional; details: dose 0.04-0.2 mg/ml
# Staphylococcus aureus [15] = assay: Induction of ROS generation in methicillin-resistant Staphylococcus aureus SA3 using hydroxyphenyl fluorescein at 0.09 ug/ml under anaerobic condition; format: functional, organism-based; details: dose 0.09 µg/ml, TDE = time-dependent effect
# Staphylococcus aureus [16] = assay: Antibacterial agents against c5-resistant mutant of methicillin-resistant Staphylococcus aureus SA3 m4 assessed as absence of growth measured after 18 hrs by micro-dilution method; format: functional
molecule,measurement,setting,value
CCCn1c2c([n+](Cc3ccccc3)c1C)C(=O)c1ccccc1C2=O.[Br-],MIC,Staphylococcus aureus [1],6.25 µg/mL
POLYMYXIN B,Activity,Escherichia coli,inactive
same,Activity,Pseudomonas aeruginosa,inactive
Cc1n(CC(C)C)c2c([n+]1Cc1ccccc1)C(=O)c1ccccc1C2=O.[Br-],MIC,Staphylococcus aureus [1],3.13 µg/mL
CCCCCCCCCCn1c2c([n+](CCCC)c1C)C(=O)c1ccccc1C2=O.[Br-],MIC,Staphylococcus aureus [1],3.13 µg/mL
CCCCCCCCn1c2c([n+](Cc3ccco3)c1C)C(=O)c1ccccc1C2=O.[Br-],MIC,Staphylococcus aureus [2],0.39 µg/mL
same,CLint scaled at 2 µM,[3],95 mL/min/kg
same,MIC,Bacillus subtilis,0.39 µg/mL
same,half-life at 2 µM,[4],16.1 min
same,MIC,Staphylococcus aureus [5],0.39 µg/mL
same,Activity,[6]; 72 h,Toxic
same,MIC,Staphylococcus aureus [1],0.39 µg/mL
same,MIC,Staphylococcus aureus [7],0.39 µg/mL
CCn1c2c([n+](Cc3ccco3)c1C)C(=O)c1ccccc1C2=O.[Br-],MIC,Staphylococcus aureus [1],12.5 µg/mL
CCCC[n+]1c2c(n(C3CCC3)c1C)C(=O)c1ccccc1C2=O.[Br-],MIC,Staphylococcus aureus [1],25 µg/mL
Cc1n(C(C)C)c2c([n+]1Cc1ccccc1)C(=O)c1ccccc1C2=O.[Br-],MIC,Staphylococcus aureus [1],3.13 µg/mL
CCCCCC[n+]1c2c(n(CCCC)c1C)C(=O)c1ccccc1C2=O.[Br-],MIC,Staphylococcus aureus [1],3.13 µg/mL
Cc1n(C(C)(C)C)c2c([n+]1Cc1ccccc1)C(=O)c1ccccc1C2=O.[Br-],MIC,Staphylococcus aureus [1],3.13 µg/mL
CCCCn1c2c([n+](C3CCCCC3)c1C)C(=O)c1ccccc1C2=O.[Br-],MIC,Staphylococcus aureus [1],25 µg/mL
CCCCn1c2c([n+](Cc3ccco3)c1C)C(=O)c1ccccc1C2=O.[Br-],MIC,Staphylococcus aureus [1],6.25 µg/mL
CCCn1c2c([n+](Cc3ccco3)c1C)C(=O)c1ccccc1C2=O.[Br-],MIC,Staphylococcus aureus [1],12.5 µg/mL
CCCCCn1c2c([n+](CCCC)c1C)C(=O)c1ccccc1C2=O.[Br-],MIC,Staphylococcus aureus [1],3.13 µg/mL
Cc1n(CC2CC2)c2c([n+]1Cc1ccccc1)C(=O)c1ccccc1C2=O.[Br-],MIC,Bacillus subtilis,1.56 µg/mL
same,MIC,Staphylococcus aureus [5],0.78 µg/mL
same,MIC,Staphylococcus aureus [1],1.56 µg/mL
Cc1n(Cc2ccco2)c2c([n+]1Cc1ccccc1)C(=O)c1ccccc1C2=O.[Br-],MIC,Staphylococcus aureus [1],6.25 µg/mL
CCCCCC[n+]1c2c(n(CCOC)c1C)C(=O)c1ccccc1C2=O.[Br-],Activity,Staphylococcus aureus [8],Tde
same,Activity,Staphylococcus aureus [9],inactive
same,MIC,Staphylococcus aureus [10],> 50 µg/mL
same,MIC,Staphylococcus aureus [2],6.25 µg/mL
same,MIC,Staphylococcus aureus [11],> 50 µg/mL
same,MIC,Staphylococcus aureus [12],> 50 µg/mL
same,Time,Staphylococcus aureus [13],54 h
same,Time,Staphylococcus aureus [14],38 h
same,CLint scaled at 2 µM,[3],37 mL/min/kg
same,Activity,Staphylococcus aureus [15],Tde
same,MIC,Bacillus subtilis,6.25 µg/mL
same,half-life at 2 µM,[4],33.7 min
same,MIC,Staphylococcus aureus [16],> 50 µg/mL
same,MIC,Staphylococcus aureus [5],6.25 µg/mL
same,MIC,Staphylococcus aureus [1],6.25 µg/mL
same,MIC,Staphylococcus aureus [7],6.25 µg/mL
CCCCCCn1c2c([n+](CCCCCC)c1C)C(=O)c1ccccc1C2=O.[Br-],MIC,Staphylococcus aureus [2],0.78 µg/mL
same,MIC,Bacillus subtilis,1.56 µg/mL
same,MIC,Staphylococcus aureus [5],0.78 µg/mL
same,MIC,Staphylococcus aureus [1],0.78 µg/mL
same,MIC,Staphylococcus aureus [7],0.78 µg/mL
CCCCCCn1c2c([n+](Cc3ccco3)c1C)C(=O)c1ccccc1C2=O.[Br-],MIC,Bacillus subtilis,3.13 µg/mL
same,MIC,Staphylococcus aureus [5],0.78 µg/mL
same,MIC,Staphylococcus aureus [1],0.78 µg/mL
CCCCCn1c2c([n+](CCCCC)c1C)C(=O)c1ccccc1C2=O.[Br-],MIC,Staphylococcus aureus [1],3.13 µg/mL
CN[C@H](CC(C)C)C(=O)N[C@H]1C(=O)N[C@@H](CC(N)=O)C(=O)N[C@H]2C(=O)N[C@H]3C(=O)N[C@H](C(=O)N[C@H](C(=O)O)c4cc(O)cc(O)c4-c4cc3ccc4O)[C@H](O)c3ccc(c(Cl)c3)Oc3cc2cc(c3O[C@@H]2O[C@H](CO)[C@@H](O)[C@H](O)[C@H]2O[C@H]2C[C@](C)(N)[C@H](O)[C@H](C)O2)Oc2ccc(cc2Cl)[C@H]1O [VANCOMYCIN],Activity,Staphylococcus aureus [9],inactive
same,MIC,Staphylococcus aureus [2],1.56 µg/mL
same,Time,Staphylococcus aureus [13],54 h
same,Time,Staphylococcus aureus [14],40 h
same,MIC,Bacillus subtilis,0.19 µg/mL
same,MIC,Staphylococcus aureus [5],1.56 µg/mL
same,MIC,Staphylococcus aureus [1],6.25 µg/mL
same,MIC,Staphylococcus aureus [7],6.25 µg/mL
CCCCCCCn1c2c([n+](Cc3ccccc3)c1C)C(=O)c1ccccc1C2=O.[Br-],MIC,Staphylococcus aureus [2],0.39 µg/mL
same,CLint scaled at 2 µM,[3],101 mL/min/kg
same,MIC,Bacillus subtilis,0.78 µg/mL
same,half-life at 2 µM,[4],15.6 min
same,MIC,Staphylococcus aureus [5],0.39 µg/mL
same,survival at 72 h,"[6]; Oregon R, at 0.1 to 1 mg/mL",75%
same,MIC,Staphylococcus aureus [1],0.78 µg/mL
same,MIC,Staphylococcus aureus [7],0.78 µg/mL
CCCCCCCn1c2c([n+](CCCC)c1C)C(=O)c1ccccc1C2=O.[Br-],MIC,Bacillus subtilis,0.39 µg/mL
same,MIC,Staphylococcus aureus [5],0.78 µg/mL
same,MIC,Staphylococcus aureus [1],0.78 µg/mL
CCCC[n+]1c2c(n(C(C)(C)C)c1C)C(=O)c1ccccc1C2=O.[Br-],MIC,Staphylococcus aureus [1],6.25 µg/mL
